What was measured:
Format in all cases: physicochemical
[1] = Stability of ionizable cationic lipids under accelerated oxidation (H2O2/Fe(III)Cl, UHPLC-CAD), Example 29; conditions: for % of main lipid peak to To, 24 h.: individual lipids 0.5 mM; for % of main lipid peak to To, 24 h. / % of main lipid peak to To, 48 h. / % of main lipid peak to To, 72 h.: 1% H2O2/100 μM Fe(III)Cl, 37° C.; for % of main lipid peak to To, 48 h. / % of main lipid peak to To, 72 h.: individual lipids
Protocol: Ethanol (Sigma-Aldrich, cat #459836) stocks of 1 mM cationic lipids (KC3, KC3-OA, KC3-PA, KC3-C17 and KC3-C17(C8:1)) were prepared and stored at −20° C. Prior to the experiment, 75 μl of a lipid stock was mixed with 75 μl of ultra-pure water (Rx Biosciences, cat #P01-UPW02-1000) to make 0.5 mM of cationic lipids and 5 mM of linoleic acid respectively. A combined stock in water of 10% H2O2 (Sigma-Aldrich, cat #H1009) and 1 mM of Fe(III)Cl (Sigma-Aldrich, cat #372870) was freshly by prepared prior to the experiment. To make 1% final concentration of H2O2 and 100 μM Fe(III)Cl, 15 μl of 10% H2O2/1 mM Fe(III)Cl stock was added to 135 μl of individual lipids The liposomes and individual lipids were incubated with H2O2/Fe(III)Cl at 37° C. and then 5 μl from each sample was taken at different time points (0, 24, 48, 72 and 96 hours) and dissolved in 90 μl of MeOH for HPLC analysis. Degradation of the main lipid peak was analyzed using Thermo Scientific Vanquish Flex UHPLC occupied with Charged Aerosol Detector (CAD) and Phenomenex™ Kinetex C8 column (L=150 mm, D=2.1 mm, Particle Size=1.7 μm, 100 A).
The data are presented as a percentage of the main lipid peak measured at different time points relative to the lipid peak measured at time zero.

[2] = Apparent solubility of phosphatidylserine salts in ethanol (shake flask); conditions: for Solubility, mM phosphatidylserine: 100% ethanol, room temperature, 24 hours, N=3
Protocol: Apparent solubilities of phosphatidylserine salts in ethanol were determined by shake flask technique. Sodium and ammonium salts of phosphatidylserines in the powder form were obtained from Avanti Polar Lipids (Alabama, USA). Aliquots of phosphatidylserine salt powder were placed in 12×75 borosilicate glass tubes in triplicate. Three mL of 200 proof ethanol (catalog number E-7023, MilliporeSigma, USA) were added, the tubes were closed with polyethylene snap caps, agitated using vortex mixer for 10-15 s to obtain uniform suspensions, and placed in a horizontal position on a rocking platform at room temperature (20-22° C.) overnight. The ambient temperature at the end of incubation was 20.4-20.9° C. After 24 hours incubation, the suspensions were visually checked for the presence of a solid phase, allowed to settle under gravity, and the supernatant solutions were passed through a 0.2-μm PTFE syringe membrane filters. The first 0.5 ml of the filtrate was discarded, the next 1 ml was collected, and phosphatidylserine in the filtrates was quantified by phospholipid phosphate assay as follows: 20 μL aliquots of the filtrate were taken in triplicate into glass tubes, ethanol was evaporated in a stream of argon at 70° C., and the residue was digested in a mixture of 60 μL concentrated sulfuric acid and 20 μL 30% hydrogen peroxide for 10 min at 180-190° C. The digested samples were diluted with 1 mL of deionized water, 20 μL of 10% sodium sulfite was added to destroy any residual peroxide, and the samples were incubated on a boiling water bath for 15 min to hydrolyze any condensed phosphate species. The samples were chilled down to room temperature, mixed with 0.2 mL of 2% (w/w) ammonium molybdate solution and 20 μL of 10% (w/w) ascorbic acid solution, incubated on a boiling water bath for 10 min, and chilled down in a water bath at room temperature. The phosphate concentration was determined from the optical density of the formed blue phosphomolybdic acid at 825 nm using five-point standard curve from concurrently run standards prepared from the NIST-traceable commercial phosphate standard solution diluted to cover the range of 0-2 mM phosphate (coefficient of determination R^2>0.9999). Solubility of phosphatidylserine salts was expressed in molarity units of phosphatidylserine (Table 40). The data are average f SD (N=3).

[3] = Oxidative stability of ICLs and liposomes under accelerated oxidation (H2O2/Fe(III)Cl, UHPLC-CAD), Example 18; conditions: ICL lipid suspensions, 1% H2O2/100 μM Fe(III)Cl, 37° C.
Protocol: Individual lipid stocks (10 mM) were prepared in ethanol and stored at −20° C. […] Liposomal formulations based on AKG-UO-1 and O-11769 ionizable cationic lipids (Table 12) were prepared by combining lipid mixtures of desired composition in 1 mL ethanol with 3 mL 6.25 mM sodium acetate, pH 5.0 at 6 mL/min on a NanoAssemblr (Precision Nanosystems). 3.6 mL of the mixture was retained, while the initial 0.35 mL of the mixture and final 0.05 mL were discarded. Ethanol was removed by buffer exchange into PBS, pH 7.4 by concentrating each liposome preparation using an Aminon-Ultra 4 centrifugal concentrator at 500 g for 10 min at 4° C. and diluting back to the original volume with PBS. This cycle was repeated multiple times until the ethanol concentration was <1%. Finally, liposomes were sterile filtered through 0.2 μm PES (Nalgene) syringe filters and size measured by a ZetaSizer (Malvern).
Aliquots of the liposomal formulations were stored at −80° C. and thawed before the experiment. A combined stock in water of 10% H2O2 (Sigma-Aldrich, cat #H1009) and 1 mM of Fe(III)Cl (Sigma-Aldrich, cat #372870) was freshly prepared prior to the treatment. To make 1% final concentration of H2O2 and 100 μM Fe(III)Cl, 10 μl of 10% H2O2/1 mM Fe(III)Cl stock was added to 90 μl of both liposomal formulations and individual lipids The liposomes and individual lipids were incubated with H2O2/Fe(III)Cl at 37° C. and then 5 μl from each sample was taken at different time points (0, 3, 24, 48 and 72 hours) and dissolved in 90 μl of MeOH for HPLC analysis. Degradation of the main lipid peak was analyzed using Thermo Scientific Vanquish Flex UHPLC occupied with Charged Aerosol Detector (CAD) and Thermo Scientific Accucore™ C18+ UHPLC column (L=50 mm, D=2.1 mm, Particle Size=1.5 μm).
The data are presented as a percentage of the main lipid pea measure at different time points relative to the lipid peak measured at time zero.

Structure (SMILES) | % of main lipid peak to To, 24 h. [1] | % of main lipid peak to To, 48 h. [1] | % of main lipid peak to To, 72 h. [1] | Solubility, mM phosphatidylserine [2] | other results
CCCCCCCCCCCCCCCCCC1(CCCCCCCCCCCCCCCCC)OC[C@H](CCCN(C)C)O1 [KC3-17, (S)-3-(2,2-diheptadecyl-1,3-dioxolan-4-yl)-N,N-dimethylpropan-1-amine] | 92.9 ± 0.3% | 91.8 ± 1.2% | 90.2 ± 1.2% |  | 
CCCCCCCCCCCCCCCCCC(=O)OC[C@H](COP(=O)(O)OC[C@H](N)C(=O)O)OC(=O)CCCCCCCCCCCCCCCCC.N [DSPS ammonium] |  |  |  | 0.034 ± 0.004 mM | 
CCCCCCCCCCCCCCCC(=O)OC[C@H](COP(=O)(O)OC[C@H](N)C(=O)O)OC(=O)CCCCCCCCCCCCCCC.N [DPPS ammonium] |  |  |  | 0.865 ± 0.060 mM | ethanol solubility ([2]; vs DSPS ammonium and the sodium salts): several-fold higher ethanol solubility
CCCCC/C=C\CCCC/C=C\CCCCC(=O)OC[C@H](CCCN(C)C)OC(=O)CCCC/C=C\CCCC/C=C\CCCCC [UO-7] |  |  |  |  | % of parent lipid peak at time 0, 24 h [3]: 80 ± 1.7%; % of parent lipid peak at time 0, 48 h [3]: 71 ± 0.8%; % of parent lipid peak at time 0, 72 h [3]: 62 ± 1.0%
CCCCCC/C=C\CCCCCCCCC1(CCCCCCCC/C=C\CCCCCC)OC[C@H](CCCN(C)C)O1 [KC3-PA, 3-((S)-2,2-di((Z)-hexadec-9-en-1-yl)-1,3-dioxolan-4-yl)-N,N-dimethylpropan-1-amine] | 62.7 ± 0.1% | 59.2 ± 0.8% | 60.2 ± 0.6% |  | 
CCCCC/C=C\C/C=C\CCCCCCCCC1(CCCCCCCC/C=C\C/C=C\CCCCC)OCC(CCCN(C)C)O1 (stereo not drawn) [KC3, reference compound] | 11.2 ± 1.0% | 10.5 ± 0.5% | 0 ± 0% |  | degradation under forced oxidation with H2O2 ([1]; relative to other cationic lipids, FIG. 18): fastest degradation
CCCCCCCC/C=C\CCCCCCCC1(CCCCCCC/C=C\CCCCCCCC)OC[C@H](CCCN(C)C)O1 [KC3-17 (C8:1), 3-((S)-2,2-di((Z)-heptadec-8-en-1-yl)-1,3-dioxolan-4-yl)-N,N-dimethylpropan-1-amine] | 66.1 ± 0.6% | 58.4 ± 1.5% | 45.9 ± 4.7% |  | 
CCCCC/C=C\CCCC/C=C\CCCCC(=O)OC[C@H](CCN(C)CCO)OC(=O)CCCC/C=C\CCCC/C=C\CCCCC [UO-6] |  |  |  |  | % of parent lipid peak at time 0, 24 h [3]: 58 ± 0.8%; % of parent lipid peak at time 0, 48 h [3]: 32 ± 1.3%; % of parent lipid peak at time 0, 72 h [3]: 22 ± 1.8%
CCCCCCCCCCCCCCCCCC(=O)OC[C@H](COP(=O)(O)OC[C@H](N)C(=O)[O-])OC(=O)CCCCCCCCCCCCCCCCC.[Na+] [DSPS sodium] |  |  |  | 0.111 ± 0.009 mM | 
CCCCCCCCCCCCCCCC(=O)OC[C@H](COP(=O)(O)OC[C@H](N)C(=O)[O-])OC(=O)CCCCCCCCCCCCCCC.[Na+] [DPPS sodium] |  |  |  | 0.201 ± 0.004 mM | 
CCCCCCCC/C=C\CCCCCCCCC1(CCCCCCCC/C=C\CCCCCCCC)OC[C@H](CCCN(C)C)O1 [KC3-OA, 3-((S)-2,2-di((Z)-octadec-9-en-1-yl)-1,3-dioxolan-4-yl)-N,N-dimethylpropan-1-amine] | 88.9 ± 0.5% | 84.6 ± 0.9% | 79.0 ± 0.1% |  | 

— patent US12064479B2, “Lipid nanoparticles for delivery of nucleic acids and methods of use thereof” (Akagera Medicines, Inc., priority 2022, dated 2024)
